Here are results for 1 molecule from patent publication US20170058288A1, “OSNF-YA7 GENE FOR INCREASING DROUGHT STRESS RESISTANCE OF PLANT AND USE THEREOF” (SNU R&DB FOUNDATION, priority 2014, published 2017).

For assay [1], the system named is OsNF-YA4. Put plainly: OsNF-YA4 gene expression in response to ABA treatment (qRT-PCR). To be noted: short-term treatment (24 hours) with 10 and 100 μM ABA, NT rice plant, compared to untreated control group. Type of assay: in vivo, rice (Oryza sativa). On the procedure: (§1) To analyze expression patterns of OsNF-YA4 and OsNF-YA7 gene in response to abiotic stress, non-transgenic rice plants (NT plants; breed—“Nakdong”) were grown in soil for 4 week in green house. The whole plant of a 4-week old non-transgenic plant was air-dried for 3 hrs for drought stress treatment. For the treatment of salt stress, whole plants were transferred to a solution containing 200 mM of NaCl and kept for 24 hours. For the treatment of low temperature stress, whole plants were transferred to a 4° C. low temperature chamber and kept for 24 hrs. For the analysis of OsNF-YA4 and OsNF-YA7 gene expression pattern in response to ABA, NT plant were grown in MS media for 2 week in growth chamber. For the short-term treatment with ABA, the whole plants were transferred to a solution containing 10 or 100 μM ABA and treated with the solution for 24 hours. For the long-term treatment with ABA, NT plant seeds were planted and grown on MS media supplemented with 0, 0.5, 1 or 3 μM of ABA for 2 weeks.
(§2) Leaf and root tissues of a plant which has been treated with either abiotic stress or absicic acid were collected and frozen. […] To analyze the gene expression level, quantitative PCR was carried out by using Mx3000p real-time PCR machine and Platinum® SYBR® Green qPCR SuperMix-UDG system (Invitrogen, USA). […]

Assay [2] concerns OsNF-YA7. In words: OsNF-YA7 gene expression in response to ABA treatment (qRT-PCR). Type of assay: in vivo, rice (Oryza sativa). The following applies: short-term treatment (24 hours) with 10 and 100 μM ABA, NT rice plant, compared to untreated control group. On the procedure: as §1, §2

For the molecule `CC1=CC(=O)CC(C)(C)[C@@]1(O)/C=C/C(C)=C\C(=O)O` [ABA, Abscisic acid], the “increase in OsNF-YA4 expression level” value in assay [1] was determined as 4 fold. In addition, the “decrease in OsNF-YA7 expression level” value in assay [2] is “approximately 30%”.
